Assay results taken from EP1157000B1 (Warner-Lambert Company LLC, priority 1999, dated 2001).

What was measured:
ex vivo rat retinas = test: CO2 fixation: H14CO3 incorporation into metabolites by ex vivo retinas; type: cell-based; details: for TCA cycle / Asp / Gln / Glu / Total / Lact: half retinas, 37°C, 25 mM H14CO3, 0.2 mM pyruvate, BCAA 0.2 mM each; for Lact: lactate peak includes pyruvate
Experimental: Sprague Dawley rats (200-400g) were used for all experiments. Rats were housed under a 12 hour light/dark cycle, and fed and watered ad libidum. After anaesthetizing the rats with-nembutal (IP), eyes were enucleated and retinas dissected in ice-cold buffer.
Freshly isolated half-retinas were preincubated at 37°C for 3 minutes in buffer A (pH 7.4) containing 118 mM NaCl, 4.7 mM KCl, 2.5 mM CaCl, 1.2 mM KH2PO4, 1.17 mM MgSO4, 20 mM HEPES, 5 mM glucose, 0.05 mM NH4Cl and 25 mM NaH^14CO3. Pyruvate (either 0.2 or 5mM) was also included in the buffer. 1 ml buffer as well as the gas phase within 20 ml vials were equilibrated with 95% O2, 5% CO2. Incubations were initiated by addition of 10 µCi/ml H^14CO3. The vessels were then immediately closed to the atmosphere. Most incubations continued for 20 minutes, although in some preliminary studies, times were varied from 10-60 minutes. Reactions were stopped by removing the half retinas from the buffer and placing them in 2% perchloric acid. The buffer was separately acidified with perchloric acid (final concentration 2%) and unreacted ^14CO2 was allowed to diffuse out of the acidified samples.
The total amount of product (non-volatile carbon 14 metabolites) was determined by measuring the radioactivity in aliquots of the medium and tissue samples. Metabolites in the extracts were separated by Dowex-1 acetate chromatography as previously described: Williamson, J.R., and Corkey, B. (1969) "Methods in Enzymology", Vol, 13, ed. Lowenstein, J.M. (Academic Press) pp 434-513, and quantified by scintillation counting. In most instances, individual metabolite carbon 14 data is reported as the sum of the radioactivity in the medium plus tissue extracts. Complete quantification of ^14C-metabolite amounts in both the retina and in the medium can be found below in Tables I and II.
The chromatographic procedure employed in this example separates glutamine, glutamate, aspartate, and lactic acid. The citric acid cycle intermediates remain on the Dowex columns and are estimated as the difference between the total counts in the sample and the counts that are eluted. Evidence of the validity of this procedure has been reported previously. Before subjecting samples to chromatography, ^14C-pyruvic acid in the samples was converted stoichiometrically to lactate by treating the samples with excess NADH and lactate dehydrogenase. Therefore the single lactate peak reported contains all carbon 14 in both lactate and pyruvate. To determine specific activity of glutamate and glutamine in the retinal samples, the mass amount of the glutamate was measured fluorometrically using a standard enzymatic procedure: Patel, M.S. (1989) in Neuromethods: Carbohydrate and Energy Metabolism, Vol II, eds. Boulton, A.A and Baker G.D. (The Humana Press, Inc.) pp 309-340. The mass amount of glutamine was measured after chromatographic separation from glutamate followed by a luminometric determination previously described. ATP and creatine phosphate were measured fluorometrically using an enzymatic assay.
Data are reported in text and figures by determining the dpm/mg in a particular metabolite and dividing by the specific activity of medium HCO3. Therefore all data are reported as nmoles of H^14CO3/mg protein for any given metabolite.

[1] = tested on: freshly dissected rat retinas; test: Synthesis of leucine in freshly dissected retinas; type: cell-based; details: data not shown
BCATc = target: T1, BCATc (Homo sapiens, UniProt P54687); details: cited from earlier work
T1 sequence (P54687 1-386): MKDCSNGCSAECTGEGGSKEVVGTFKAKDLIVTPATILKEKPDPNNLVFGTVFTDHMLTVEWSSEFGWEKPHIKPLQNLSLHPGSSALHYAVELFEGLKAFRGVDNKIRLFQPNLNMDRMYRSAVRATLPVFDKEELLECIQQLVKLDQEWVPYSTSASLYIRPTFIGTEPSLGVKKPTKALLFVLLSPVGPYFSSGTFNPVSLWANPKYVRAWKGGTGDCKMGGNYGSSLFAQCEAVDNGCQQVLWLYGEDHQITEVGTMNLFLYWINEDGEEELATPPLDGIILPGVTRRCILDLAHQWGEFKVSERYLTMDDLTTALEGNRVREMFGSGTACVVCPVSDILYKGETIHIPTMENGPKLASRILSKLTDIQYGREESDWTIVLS

BCATm = target: T2, BCATm (Homo sapiens, UniProt O15382); details: cited from earlier work
T2 sequence (O15382 28-392): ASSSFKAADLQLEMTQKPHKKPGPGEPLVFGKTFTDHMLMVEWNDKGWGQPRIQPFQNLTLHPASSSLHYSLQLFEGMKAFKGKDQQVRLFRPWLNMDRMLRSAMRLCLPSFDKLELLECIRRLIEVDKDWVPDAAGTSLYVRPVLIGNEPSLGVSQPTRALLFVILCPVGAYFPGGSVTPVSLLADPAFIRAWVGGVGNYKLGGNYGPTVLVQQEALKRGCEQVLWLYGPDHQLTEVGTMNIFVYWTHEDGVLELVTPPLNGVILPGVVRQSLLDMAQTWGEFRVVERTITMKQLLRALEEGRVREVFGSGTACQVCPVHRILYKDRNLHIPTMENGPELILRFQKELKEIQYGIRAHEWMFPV

[2] = 0, 0.2, 1, or 5 mM GBP, 20 minutes, Figure 5
[3] = compartment in (retina), 20 min, GBP 1 mM
[4] = compartment out (medium), 20 min, GBP 1 mM
[5] = sum of medium plus tissue, 20 min, GBP 1 mM

For `NCC1(CC(=O)O)CCCCC1` [GBP, gabapentin], which “extent of inhibition of the synthesis of ^14C-glutamate plus ^14C-glutamine on increasing the concentration over 1 mM” value (ex vivo rat retinas; [2]) is on record?
Its value is “did not significantly increase”.

And the “formation of citric acid cycle intermediates, lactate and pyruvate” value (ex vivo rat retinas; [2])?
The value was “no influence”.

And the “formation of ^14C-glutamate plus ^14C-glutamine” value (ex vivo rat retinas; 1 mM GBP plus 200 µM each of leucine, isoleucine and valine)?
Its value is 89 % of control.

And the “formation of ^14C-glutamate plus ^14C-glutamine” value (ex vivo rat retinas; 1 mM GBP plus 200 µM each of leucine, isoleucine and valine, p<0.01 versus GBP alone)?
The value was 2.84 ± 1.15 nmol/mg.

And the “formation of ^14C-glutamate plus ^14C-glutamine” value (ex vivo rat retinas; 1 mM GBP, 20 min, 0.2 mM pyruvate, p<0.001)?
The value was 71 % of control.

And the “formation of ^14C-glutamate plus ^14C-glutamine” value (ex vivo rat retinas; 1 mM GBP, 20 min, 0.2 mM pyruvate, control 3.18 ± 0.12)?
The value was 2.26 ± 0.05 nmol/mg.

And the “incorporation of carbon 14 into lactate and citric acid cycle intermediates” value (ex vivo rat retinas; 1 mM GBP, control 1.93 ± .06, increase not significant)?
The value was 2.12 ± 0.13 nmoles of H^14CO3/mg protein.

And the “H^14CO3 incorporation into lactate and citric acid cycle intermediates” value (ex vivo rat retinas; GBP 1 mM)?
Its value is “without slowing”.

What about the “Inhibition of de novo glutamate synthesis after addition of BCAA” value (ex vivo rat retinas; GBP 1 mM plus 0.6 mM BCAA) of the same compound?
The value was “reversed”.

What about the inhibition at 1000 µM (ex vivo rat retinas; Rattus norvegicus, GBP 1 mM, read-out: inhibited synthesis of ^14C-glutamate plus ^14C-glutamine from H^14CO3) of the same compound?
The inhibition at 1000 µM was 31%.

What about the TCA cycle (ex vivo rat retinas; compartment in (retina), estimated as total counts minus eluted counts, 20 min, GBP 1 mM) of the same compound?
Its TCA cycle is 1.514 ± 0.103 nmoles of H^14CO3/mg protein.

And the Asp (ex vivo rat retinas; [3])?
Its Asp is 0.549 ± 0.019 nmoles of H^14CO3/mg protein.

And the Gln (ex vivo rat retinas; [3])?
Its Gln is 0.389 ± 0.026 nmoles of H^14CO3/mg protein.

What about the Glu (ex vivo rat retinas; [3]) of the same compound?
Its Glu is 1.324 ± 0.025 nmoles of H^14CO3/mg protein.

And the Total (ex vivo rat retinas; [3])?
Its Total is 3.902 ± 0.122 nmoles of H^14CO3/mg protein.

What about the Lact (ex vivo rat retinas; [3]) of the same compound?
Its Lact is 0.089 ± 0.006 nmoles of H^14CO3/mg protein.

And the Asp (ex vivo rat retinas; [4])?
Its Asp is 0.035 ± 0.003 nmoles of H^14CO3/mg protein.

And the Gln (ex vivo rat retinas; [4])?
The Gln was 0.545 ± 0.024 nmoles of H^14CO3/mg protein.

What about the Glu (ex vivo rat retinas; [4]) of the same compound?
The Glu was 0.008 ± 0.002 nmoles of H^14CO3/mg protein.

What about the TCA cycle (ex vivo rat retinas; [4]) of the same compound?
The TCA cycle was 0 nmoles of H^14CO3/mg protein.

What about the Total (ex vivo rat retinas; [4]) of the same compound?
The Total was 1.066 ± 0.028 nmoles of H^14CO3/mg protein.

What about the Lact (ex vivo rat retinas; [4]) of the same compound?
Its Lact is 0.516 ± 0.030 nmoles of H^14CO3/mg protein.

And the Asp (ex vivo rat retinas; [5])?
Its Asp is 0.584 ± 0.022 nmoles of H^14CO3/mg protein.

And the Gln (ex vivo rat retinas; [5])?
Its Gln is 0.934 ± 0.036 nmoles of H^14CO3/mg protein.

And the Glu (ex vivo rat retinas; [5])?
The Glu was 1.332 ± 0.025 nmoles of H^14CO3/mg protein.

What about the TCA cycle (ex vivo rat retinas; [5]) of the same compound?
The TCA cycle was 1.514 ± 0.103 nmoles of H^14CO3/mg protein.

And the Total (ex vivo rat retinas; [5])?
Its Total is 4.968 ± 0.028 nmoles of H^14CO3/mg protein.

What about the Lact (ex vivo rat retinas; [5]) of the same compound?
The Lact was 0.605 ± 0.028 nmoles of H^14CO3/mg protein.

What about the synthesis of leucine [1] of the same compound?
Its synthesis of leucine is “inhibits”.

What about the “inhibition of BCATc” value (BCATc) of the same compound?
Its value is “inhibits”.

And the “inhibition of BCATm” value (BCATm)?
Its value is “not”.
